Measured values from the supplement of paper PMC10307832.

Legend:
Experiment in all cases: relative viability (nuclei count vs DMSO), 5 days (fraction); higher = more cells survive
201T = system: 201T
In short: (§1)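 Lung cancer cell lines in 1536-well plates were dosed by pin tool the day after seeding, either with one drug alone or with a fixed anchor-drug dose plus five library-drug doses (not always all listed) in √10 steps. After 5 days, cells were fixed and their nuclei stained in one step (final 0.05% Triton X-100, 1% formaldehyde, 1 ug/ml Hoechst), then counted on 4× images. Relative viability is the nuclei count in treated wells divided by that in vehicle wells. Values are medians of duplicate plates.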

A-427 = system: A-427
In short: as §1

BEN = system: BEN
In short: as §1

COR-L23 = system: COR-L23
In short: as §1

EKVX = system: EKVX
In short: as §1

EMC-BAC-2 = system: EMC-BAC-2
In short: as §1

EPLC-272H = system: EPLC-272H
In short: as §1

HCC-44 = system: HCC-44
In short: as §1

LCLC-103H = system: LCLC-103H
In short: as §1

LXF-289 = system: LXF-289
In short: as §1

NCI-H1650 = system: NCI-H1650
In short: as §1

NCI-H1651 = system: NCI-H1651
In short: as §1

NCI-H1793 = system: NCI-H1793
In short: as §1

NCI-H2023 = system: NCI-H2023
In short: as §1

NCI-H2087 = system: NCI-H2087
In short: as §1

NCI-H2126 = system: NCI-H2126
In short: as §1

NCI-H3122 = system: NCI-H3122
In short: as §1

NCI-H322M = system: NCI-H322M
In short: as §1

NCI-H358 = system: NCI-H358
In short: as §1

SK-LU-1 = system: SK-LU-1
In short: as §1

SW 1573 = system: SW 1573
In short: as §1

UMC-11 = system: UMC-11
In short: as §1

Compound `Oc1nc(-c2ccc(C(F)(F)F)cc2)nc2c1CSCC2` [XAV939] + CC(=O)c1c(C)c2cnc(Nc3ccc(N4CCNCC4)cn3)nc2n(C2CCCC2)c1=O [Palbociclib] (partner 0.5 µM) has a relative viability (201T; first compound 0.08 µM) of 0.362, a relative viability (201T; first compound 0.253 µM) of 0.315 and a relative viability (201T; first compound 0.8 µM) of 0.338. For the same compound, the relative viability (201T; first compound 2.53 µM) was 0.3, the relative viability (A-427; first compound 0.08 µM) was 0.525 and the relative viability (A-427; first compound 0.253 µM) was 0.52. For the same compound, the relative viability (A-427; first compound 0.8 µM) was 0.502, the relative viability (A-427; first compound 2.53 µM) was 0.504 and the relative viability (BEN; first compound 0.08 µM) was 0.508. The relative viability (BEN; first compound 0.253 µM) was 0.438, the relative viability (BEN; first compound 0.8 µM) was 0.485 and the relative viability (BEN; first compound 2.53 µM) was 0.45. It also gave a relative viability (COR-L23; first compound 0.08 µM) of 0.291, a relative viability (COR-L23; first compound 0.253 µM) of 0.261 and a relative viability (COR-L23; first compound 0.8 µM) of 0.237. For the same compound, the relative viability (COR-L23; first compound 2.53 µM) was 0.249, the relative viability (EKVX; first compound 0.08 µM) was 0.383 and the relative viability (EKVX; first compound 0.253 µM) was 0.343. The relative viability (EKVX; first compound 0.8 µM) was 0.34, the relative viability (EKVX; first compound 2.53 µM) was 0.227 and the relative viability (EMC-BAC-2; first compound 0.08 µM) was 0.555. For the same compound, the relative viability (EMC-BAC-2; first compound 0.253 µM) was 0.491, the relative viability (EMC-BAC-2; first compound 0.8 µM) was 0.478 and the relative viability (EMC-BAC-2; first compound 2.53 µM) was 0.338. For the same compound, the relative viability (EPLC-272H; first compound 0.08 µM) was 0.342, the relative viability (EPLC-272H; first compound 0.253 µM) was 0.251 and the relative viability (EPLC-272H; first compound 0.8 µM) was 0.305. The relative viability (EPLC-272H; first compound 2.53 µM) was 0.332, the relative viability (HCC-44; first compound 0.08 µM) was 0.899 and the relative viability (HCC-44; first compound 0.253 µM) was 0.842. It also gave a relative viability (HCC-44; first compound 0.8 µM) of 0.888, a relative viability (HCC-44; first compound 2.53 µM) of 0.807 and a relative viability (LCLC-103H; first compound 0.08 µM) of 0.53. The relative viability (LCLC-103H; first compound 0.253 µM) was 0.499, the relative viability (LCLC-103H; first compound 0.8 µM) was 0.514 and the relative viability (LCLC-103H; first compound 2.53 µM) was 0.449. For the same compound, the relative viability (LXF-289; first compound 0.08 µM) was 0.565, the relative viability (LXF-289; first compound 0.253 µM) was 0.571 and the relative viability (LXF-289; first compound 0.8 µM) was 0.588. For the same compound, the relative viability (LXF-289; first compound 2.53 µM) was 0.632, the relative viability (NCI-H1650; first compound 0.08 µM) was 0.268 and the relative viability (NCI-H1650; first compound 0.253 µM) was 0.297. For the same compound, the relative viability (NCI-H1650; first compound 0.8 µM) was 0.299, the relative viability (NCI-H1650; first compound 2.53 µM) was 0.234 and the relative viability (NCI-H1651; first compound 0.08 µM) was 0.566. It also gave a relative viability (NCI-H1651; first compound 0.253 µM) of 0.521, a relative viability (NCI-H1651; first compound 0.8 µM) of 0.529 and a relative viability (NCI-H1651; first compound 2.53 µM) of 0.462. It also gave a relative viability (NCI-H1793; first compound 0.08 µM) of 0.353, a relative viability (NCI-H1793; first compound 0.253 µM) of 0.317 and a relative viability (NCI-H1793; first compound 0.8 µM) of 0.307. It also gave a relative viability (NCI-H1793; first compound 2.53 µM) of 0.281, a relative viability (NCI-H2023; first compound 0.08 µM) of 0.405 and a relative viability (NCI-H2023; first compound 0.253 µM) of 0.291. The relative viability (NCI-H2023; first compound 0.8 µM) was 0.328, the relative viability (NCI-H2023; first compound 2.53 µM) was 0.295 and the relative viability (NCI-H2087; first compound 0.08 µM) was 0.325. For the same compound, the relative viability (NCI-H2087; first compound 0.253 µM) was 0.182, the relative viability (NCI-H2087; first compound 0.8 µM) was 0.224 and the relative viability (NCI-H2087; first compound 2.53 µM) was 0.164. It also gave a relative viability (NCI-H2126; first compound 0.08 µM) of 0.301, a relative viability (NCI-H2126; first compound 0.253 µM) of 0.352 and a relative viability (NCI-H2126; first compound 0.8 µM) of 0.35. For the same compound, the relative viability (NCI-H2126; first compound 2.53 µM) was 0.336, the relative viability (NCI-H3122; first compound 0.08 µM) was 0.2 and the relative viability (NCI-H3122; first compound 0.253 µM) was 0.196. It also gave a relative viability (NCI-H3122; first compound 0.8 µM) of 0.184, a relative viability (NCI-H3122; first compound 2.53 µM) of 0.153 and a relative viability (NCI-H322M; first compound 0.08 µM) of 0.521. For the same compound, the relative viability (NCI-H322M; first compound 0.253 µM) was 0.464, the relative viability (NCI-H322M; first compound 0.8 µM) was 0.456 and the relative viability (NCI-H322M; first compound 2.53 µM) was 0.433. It also gave a relative viability (NCI-H358; first compound 0.08 µM) of 0.149, a relative viability (NCI-H358; first compound 0.253 µM) of 0.109 and a relative viability (NCI-H358; first compound 0.8 µM) of 0.154. The relative viability (NCI-H358; first compound 2.53 µM) was 0.166, the relative viability (SK-LU-1; first compound 0.08 µM) was 0.387 and the relative viability (SK-LU-1; first compound 0.253 µM) was 0.335. It also gave a relative viability (SK-LU-1; first compound 0.8 µM) of 0.396, a relative viability (SK-LU-1; first compound 2.53 µM) of 0.394 and a relative viability (SW 1573; first compound 0.08 µM) of 0.414. The relative viability (SW 1573; first compound 0.253 µM) was 0.3, the relative viability (SW 1573; first compound 0.8 µM) was 0.326 and the relative viability (SW 1573; first compound 2.53 µM) was 0.279. For the same compound, the relative viability (UMC-11; first compound 0.08 µM) was 0.326, the relative viability (UMC-11; first compound 0.253 µM) was 0.287 and the relative viability (UMC-11; first compound 0.8 µM) was 0.355. The relative viability (UMC-11; first compound 2.53 µM) was 0.232.
